Measurements published in article PMC8228537, “Acrylonitrile Derivatives against Trypanosoma cruzi: In Vitro Activity and Programmed Cell Death Study” (Pharmaceuticals, 2021).

What was measured:
[1] = Cytotoxicity, alamarBlue, murine macrophages; assay type: cell-based; settings: mouse, J774A.1 murine macrophage cell line, J774A.1 murine macrophages, mean ± SD
Procedure: (§1) The cytotoxicity was evaluated against murine macrophages (J774A.1) using the same method mentioned in the antiparasitic assay, based on the alamarBlue Cell Viability Reagent®. In a sterile 96-well plate, 10^4 cells per well were added, then, after the complete adhesion, serial dilutions of the 32 compounds, using a deep well plate, and a 10% of alamarBlue® were joined.

[2] = system: epimastigotes of Trypanosoma cruzi; experiment: Mitochondrial membrane potential analysis (JC-1); assay type: cell-based; settings: 24 h with the IC90, JC-1, Tukey test, Figure 2
Procedure: The detection of variations in the mitochondrial membrane potential was evaluated with the JC-1 Mitochondrial Membrane Potential Assay Kit® (Cayman Chemical, Ann Arbor, MI, USA). In a 24-well plate, 500 µL of epimastigotes at 10^6 parasites per ml were added with the inhibitory concentration 90 (IC90) of the compounds. After 24 h of incubation at 26 °C, the epimastigotes were centrifuged (3000 rpm, 10 min, 4 °C), resuspended in 50µL of JC-1 buffer and added to a black 96-well plate with 5 µL of JC-1. After 30 min of incubation at 26 °C, the green and red fluorescence were measured using an EnSpire Multimode Plate Reader® (PerkinElmer). Results were expressed in percentage relative to negative control (without treatment) of the ratio 595/535 nm (J-aggregates/J-monomers).

[3] = system: epimastigotes of Trypanosoma cruzi; experiment: ATP level analysis (CellTiter-Glo); assay type: cell-based; settings: 24 h with the IC90, CellTiter-Glo, Figure 3
Procedure: Variations in the level of ATP were measured with the CellTiter-Glo® Luminescent Cell Viability Assay (Promega, WI, USA). […] Then, in a white 96-well plate, the epimastigotes were resuspended in 25µL of culture media and mixed with 25 µL of the kit. After 10 min of incubation at room temperature, the luminescence was measured using an EnSpire Multimode Plate Reader® (PerkinElmer). The results were expressed in percentage of production of ATP level relative to the negative control (without any treatment).

[4] = system: epimastigote stage of T. cruzi; experiment: Antiparasitic activity, alamarBlue, epimastigotes; assay type: cell-based, Trypanosoma cruzi; settings: for IC50: 72 h, epimastigote stage of T. cruzi (Y strain), alamarBlue, mean ± SD, NA: not active; for Selectivity index (SI): ratio of CC50 for J774A.1 and IC50 for epimastigotes of T. cruzi
Procedure: Epimastigotes of Trypanosoma cruzi (Y strain) were used in this study and cultured in liver infusion tryptose (LIT) medium supplemented with 10% of foetal bovine serum (FBS) at 26 °C.
In a sterile 96-well plate, a serial dilution of acrylonitriles was carried out in LIT medium supplemented with 10% FBS with a final volume of 100 µL. Parasites were added to wells to reach a concentration of 10^5 parasites per well. Finally, a 10% of alamarBlue Cell Viability Reagent® (ThermoFisher Scientific, Waltham, MA, USA) was added into each well, and the plate was incubated for 72 h at 26°C.

[5] = system: epimastigotes of Trypanosoma cruzi; experiment: Chromatin condensation analysis (Hoechst 33342/propidium iodide); assay type: cell-based; settings: 24 h with the IC90, Figure 1
Procedure: Vybrant® Apoptosis Assay Kit n°5, Hoechst 33342/Propidium Iodide (ThermoFisher Scientific, MA, USA) was used to determinate the chromatin condensation of the treated parasites. […] Thereafter, Hoechst (5 µg/mL) and propidium iodide (PI) (1 µg/mL) were added and incubated for 20 min at 26 °C. The EVOS® FL Cell Imaging System (ThermoFisher Scientific, MA, USA) was used to capture the fluorescence images, using the DAPI (Hoechst) and RFP (PI) light cubes.

[6] = system: epimastigotes of Trypanosoma cruzi; experiment: Plasmatic membrane permeability analysis (SYTOX Green); assay type: cell-based; settings: 24 h with the IC90, Figure 4
Procedure: The use of the dye SYTOX® Green reagent means that when the plasmatic permeability is altered, it is possible for the reagent to go inside the cells, joining the parasitic DNA and emitting an intense green fluorescence.
To determine the plasmatic membrane permeability, SYTOX® Green nucleic acid stain fluorescent dye (ThermoFisher Scientific, MA, USA) was used. […] The pellet was resuspended in a 50 µL staining buffer and the Sytox® Green at 1 µM (final concentration). After 15 min of incubation at room temperature, parasites were analyzed. Fluorescence pictures were taken with the EVOS® FL Cell Imaging System (ThermoFisher Scientific, MA, USA).

[7] = system: epimastigotes of Trypanosoma cruzi; experiment: Reactive oxygen species analysis (CellROX Deep Red); assay type: cell-based; settings: 24 h with the IC90, Figure 5
Procedure: The CellROX® reagent emits red fluorescence in the presence of reactive oxygen species.
The oxidative stress was measured with the CellROX® Deep Red Reagent (ThermoFisher Scientific, MA, USA). […] Finally, the fluorescence was analyzed using the EVOS® FL Cell Imaging System (ThermoFisher Scientific, MA, USA) with the Cy5 light cube.

Trypanosoma cruzi = experiment: Programmed cell death study (overall conclusion from the PCD assays); assay type: cell-based; settings: overall conclusion from ROS, mitochondrial potential, ATP and chromatin condensation assays
Procedure: Different assays were performed to elucidate which pathways could be triggered by these acrylonitriles. The most probable cellular process induced by our compounds is the apoptosis or programmed cell death (PCD), in which the inflammatory response is weakly activated, in contrast to a necrotic event, where the inflammatory response is strong.

[8] = system: J774A.1 murine macrophage cell line; experiment: Cytotoxicity, alamarBlue, murine macrophages; assay type: cell-based; settings: J774A.1 murine macrophages, 24 h, mean ± SD
Procedure: as §1

O=C(Cn1ccnc1[N+](=O)[O-])NCc1ccccc1 [BENZ, benznidazole, reference compound]
CC50 at 24 h [1]: > 1500 µM | Variations in the mitochondrial membrane potential relative to negative control [2]: decreasing the inter-membrane potential of the mitochondria | Percentage of ATP level relative to untreated control [3]: 18.26%

CON(C)C(=O)/C=C/C#N [Compound Q27, (E)-3-Cyano-N-methoxy-N-methylacrylamide]
IC50 ([4]; Trypanosoma cruzi): 291 ± 47 µM | CC50 at 24 h [1]: 480 ± 29.1 µM | Dead cells (propidium iodide red fluorescence) [5]: red fluorescence, indicating already dead cells | Percentage of ATP level relative to untreated control [3]: < 1% | Plasma membrane permeability (SYTOX Green fluorescence) [6]: more remarkable | Reactive oxygen species (CellROX Deep Red fluorescence) [7]: less intense fluorescence | Induction of programmed cell death (apoptosis-like process) (Trypanosoma cruzi): robust evidence of inducing all the physiological features of an apoptosis-like process

CN(C(=O)/C=C/C#N)c1ccccc1 [Compound Q29, (E)-3-Cyano-N-methyl-N-phenylacrylamide]
IC50 ([4]; Trypanosoma cruzi): 138 ± 14 µM | CC50 at 24 h [1]: 327.9 ± 2.85 µM | Chromatin condensation (Hoechst 33342 blue fluorescence) [5]: intense blue fluorescence in the nucleus, indicating chromatin condensation | Dead cells (propidium iodide red fluorescence) [5]: red fluorescence, indicating already dead cells | Percentage of ATP level relative to untreated control [3]: < 1% | Plasma membrane permeability (SYTOX Green fluorescence) [6]: more remarkable | Reactive oxygen species (CellROX Deep Red fluorescence) [7]: less intense fluorescence | Induction of programmed cell death (apoptosis-like process) (Trypanosoma cruzi): robust evidence of inducing all the physiological features of an apoptosis-like process

N#CC=CC(=O)N1C(=O)OC[C@H]1c1ccccc1 [Compound Q31, (E)-(R,E)-4-Oxo-4-(2-oxo-4-phenyloxazolidin-3-yl)but-2-enenitrile]
IC50 [4]: 20.38 ± 0.13 µM | Selectivity index (SI) [4]: 0.51 | CC50 [8]: 10.4 ± 1.06 µM

N#CC=CC(=O)N1C(=O)OC[C@H]1c1ccccc1 [Compound Q32, (Z)-(R,Z)-4-Oxo-4-(2-oxo-4-phenyloxazolidin-3-yl)but-2-enenitrile]
Selectivity index (SI) [4]: 0.78 | CC50 [8]: 2.89 ± 0.74 µM
